Source: PMC11124507, “Synthesis and Evaluation of Novel ^68Ga-Labeled [D-Phe^6,Leu^13ψThz^14]bombesin(6-14) Analogs for Cancer Imaging with Positron Emission Tomography” (Pharmaceuticals, 2024)
One block for each molecule: values may come before it.

Assays:
GRPR = molecular target: T1, GRPR (Homo sapiens, UniProt P30550); experiment: Fluorometric intracellular calcium release assay in PC-3 cells; format: cell-based; conditions: 50 nM, n = 3
T1 construct: Known to overexpress GRPR, the PC-3 cell line, a human prostate cancer cell line; host or cells: PC-3 human prostate cancer cells
Description: Following previously published procedures, 5 × 10^4 PC-3 cells in 100 μL of growth media were seeded per well in a 96-well clear-bottom black plate 24 h prior to the assay. A loading buffer (100 μL/well) containing a calcium-sensitive dye (FLIPR Calcium 6 assay kit) was added to the 96-well plate. After incubation at 37 °C for 2 h, the plate was placed in a FlexStation 3 microplate reader (Molecular Devices, San Jose, CA, USA). TacsBOMB2 derivatives (50 nM), [D-Phe^6,Leu-NHEt^13,des-Met^14]Bombesin(6-14) (50 nM, antagonist control), bombesin (50 nM, agonist control), adenosine triphosphate (ATP, 50 nM, positive control), or DPBS (blank control) was added, and the fluorescent signals were acquired for 2 min (λEx = 485 nm; λEm = 525 nm; n = 3). The relative fluorescent units (RFUs = max − min) were measured to determine the agonistic/antagonistic properties.

PC-3 tumor xenografts = conditions: mouse, in vivo, 1 h; cited from earlier work

T1 sequence (P30550 whole entry): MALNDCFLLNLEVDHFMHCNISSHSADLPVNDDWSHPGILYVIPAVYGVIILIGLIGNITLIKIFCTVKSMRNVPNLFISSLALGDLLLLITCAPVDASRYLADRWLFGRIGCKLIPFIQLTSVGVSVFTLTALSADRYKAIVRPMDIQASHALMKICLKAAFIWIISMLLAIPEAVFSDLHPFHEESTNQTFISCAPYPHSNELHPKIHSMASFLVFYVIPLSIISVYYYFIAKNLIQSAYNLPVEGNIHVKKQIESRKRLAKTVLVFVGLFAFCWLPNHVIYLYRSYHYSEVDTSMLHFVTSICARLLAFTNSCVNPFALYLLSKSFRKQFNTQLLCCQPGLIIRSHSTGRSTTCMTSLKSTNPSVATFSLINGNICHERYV

Ca2+ efflux (GRPR): 499 ± 73.4 RFUs
Molecule: bombesin

Ca2+ efflux (GRPR): 38.2 ± 7.20 RFUs
Molecule: [D-Phe^6,Leu-NHEt^13,des-Met^14]Bombesin(6-14)

Ca2+ efflux (GRPR): 222 ± 21.7 RFUs
Molecule: Nc1ncnc2c1ncn2[C@@H]1O[C@H](COP(=O)(O)OP(=O)(O)OP(=O)(O)O)[C@@H](O)[C@H]1O [ATP, adenosine triphosphate]

Molecule: [^68Ga]Ga-DOTA-Pip-D-Phe^6-Gln^7-Trp^8-Ala^9-Val^10-Gly^11-His^12-Leu^13ψThz^14-NH2 [[^68Ga]Ga-TacsBOMB2]
Adrenal glands uptake (PC-3 tumor xenografts): 0.57 ± 0.40 %ID/g
Blood uptake (PC-3 tumor xenografts): 0.76 ± 0.21 %ID/g
Bone uptake (PC-3 tumor xenografts): 0.19 ± 0.06 %ID/g
Brain uptake (PC-3 tumor xenografts): 0.05 ± 0.03 %ID/g
Fat uptake (PC-3 tumor xenografts): 0.09 ± 0.03 %ID/g
Heart uptake (PC-3 tumor xenografts): 0.27 ± 0.08 %ID/g
Kidneys uptake (PC-3 tumor xenografts): 2.51 ± 0.59 %ID/g
Large intestine uptake (PC-3 tumor xenografts): 0.37 ± 0.16 %ID/g
Liver uptake (PC-3 tumor xenografts): 2.61 ± 0.70 %ID/g
Lungs uptake (PC-3 tumor xenografts): 0.75 ± 0.52 %ID/g
Muscle uptake (PC-3 tumor xenografts): 0.15 ± 0.05 %ID/g
PC-3 tumor uptake (PC-3 tumor xenografts): 10.2 ± 2.27 %ID/g
Pancreas uptake (PC-3 tumor xenografts): 2.81 ± 0.78 %ID/g
Small intestine uptake (PC-3 tumor xenografts): 1.04 ± 0.30 %ID/g
Spleen uptake (PC-3 tumor xenografts): 0.47 ± 0.17 %ID/g
Stomach uptake (PC-3 tumor xenografts): 0.32 ± 0.08 %ID/g
Testes uptake (PC-3 tumor xenografts): 0.19 ± 0.05 %ID/g
